In patent publication US20170112857A1, “Extended Release Aspirin” (New Haven Pharmaceuticals, Inc., priority 2015, published 2017):

Columns and labels:
[1] = tested on: High Sensitive C-Reactive Protein (hs-CRP); test: High Sensitive C-Reactive Protein (hs-CRP) test; type: in vivo, human; settings: V2 pre-dose, 81 mg IR ASA
Method: Subjects were also measured for high sensitive C-reactive protein (“hs-CRP”) levels at Visit 1, Visit 2, Visit 3 pre-dose, Visit 3 at 24 hours, Visit 6 pre-dose and Visit 6 at 24 hours.
High Sensitive C-Reactive Protein (“hs-CRP”) was measured using a Seimens Immulite 2000® Xpi analyzer (Immulite 2000 is a registered trademark of Siemens Healthcare Diagnostic, Inc.), prior to 162.5 mg ER ASA (Durlaza®) dosing at Visit 2 pre-dose, at Visit 3 pre-dose and Visit 3 at 24-hr post-dose for the 162.5 mg ER ASA (Durlaza®) dose, and at Visit 6 pre-dose and Visit 6 at 24-hr post-dose for the 325 mg ER ASA dose.

[2] = tested on: platelet aggregation; test: AA-, collagen- and ADP-induced light transmittance aggregometry (LTA); type: in vivo, human; settings: Visit 2 trough
Method: High platelet reactivity has previously been implicated in incomplete inhibition during therapy with immediate release low-dose aspirin in patients with type II diabetes. The main study consisted of a run-in phase where subjects were administered 81 mg, everyday (“QD”), of immediate release acetylsalicylic acid (“IR ASA”) for 7-28 days. […] During Visits 2 and 5 subjects were subjected to the following tests: (1) platelet aggregation measurements (a) AA induced, (b) collagen induced, and (c) Multiplate®; […] During Visits 3 and 6 subjects were subjected to the following tests: (1) platelet aggregation measurements (a) AA induced, (b) collagen induced, and (c) Multiplate®; […] An increase in platelet aggregation ([…], or […] or […]) by more than 15% with either agonists (i.e., arachidonic acid or collagen) is considered a significant loss of aspirin effect over 24 hours. […] For this study the trough level data are from the following timepoints: (1) for 81 mg-the data at Visit 2; […]

[3] = tested on: platelet aggregation; test: VerifyNow Aspirin Assay (ARU), turbidimetric optical detection in whole blood; type: in vivo, human; settings: Visit 2 trough
Method: The VerifyNow® is a turbidimetric based optical detection system that measures platelet aggregation in the whole blood and reports the optical signals as aspirin reaction units (“ARU”). The percent change in ARU over 24 hours (“ARU24”) is calculated from 1 hour post dose using the following formulas: ARU12(%)=(([…]16(%)=(([…]1)*100 and ARU24(%)=(([…]1)*100. […] For this study the trough level data are from the following timepoints: (1) for 81 mg-the data at Visit 2; […]

[4] = tested on: 2, 3-dinor-6-keto-PGF1α (prostacyclin); test: Urinary 2,3-dinor-6-keto-PGF1α (prostacyclin) excretion by GC/MS, basal and bradykinin-stimulated (Example 3); type: in vivo, human
Method: Each subject was prohibited from taking any aspirin for two weeks prior to being administered the randomly chosen drug daily for 1 week followed by a urine collection 24 hours after dosing. This protocol was repeated two additional times. […] Statistical analysis was done using Wilcoxon rank sum test for continuous variables and the Pearson test for categorical variables.

[5] = tested on: platelet function; test: PlateletWorks platelet function at trough level; type: in vivo, human; settings: Visit 2 trough
Method: The platelet function and aggregation measures at trough level were compared between the 81 mg immediate release ASA, 162.5 mg ER ASA (Durlaza®) and 325 mg ER ASA groups. For this study the trough level data are from the following timepoints: (1) for 81 mg—the data at Visit 2; (2) for 162.5 mg ER ASA (Durlaza®)—the data at Visit 3 pre-dose; and (3) for 325 mg ER ASA—the data at Visit 6 pre-dose.
This is unknown for patients with Diabetes and CVD or multiple risk factors.

[6] = tested on: serum TxB2; settings: 75 mg IR ASA; Würtz et al.; cited from earlier work
[7] = tested on: endothelial function; test: Reactive hyperemia index (ENDOPAT pulsatile arterial tonometry); type: in vivo, human; settings: for RHI < 1.67 (%): share of subjects
Method: Endothelial function was assessed using the ENDOPAT system ([…] Medical, Israel), a pulsatile arterial tonometry-based diagnostic device, at Visit 2, Visit 3, Visit 5, and Visit 6 predose. The reactive hyperemia index (“RHI”), a measure of endothelial function, and the augmentation index (“AI”), a measure of arterial stiffness, were determined. Endothelial dysfunction is defined as RHI<1.67. Normal arterial stiffness is defined as an AI -30% to -10%, increased arterial stiffness as an AI>-10% to 10%, and abnormal arterial stiffness as an AI>10%. The RHI measures vessel pliability which is a surrogate for nitric oxide production. The production of nitric oxide inhibits platelet aggregation. Thus, determining nitric oxide production following Durlaza® dosing is important to understanding its affect on platelet inhibition.

[8] = 81 mg IR, subjects compared with Visit 6 (sub-study)
[9] = HPT Group, Visit 5, 81 mg IR ASA

CC(=O)Oc1ccccc1C(=O)O [IR ASA, acetylsalicylic acid]
hs-CRP, Maximum [1]: 57.4 mg/L
hs-CRP, Mean [1]: 9.62 mg/L
hs-CRP, Minimum [1]: 0.44 mg/L
LTA (%) 2 μg/mL Collagen (Final) ([2]; 81 mg IR QD, main study): 54 ± 25%
LTA (%) 2 μg/mL Collagen (Max) ([2]; 81 mg IR QD, main study): 57 ± 24%
LTA (%) 4 μg/mL Collagen (Final) ([2]; 81 mg IR QD, main study): 65 ± 20%
LTA (%) 4 μg/mL Collagen (Max) ([2]; 81 mg IR QD, main study): 66 ± 21%
LTA (%) 5 μM ADP (Final) ([2]; 81 mg IR QD, main study): 50 ± 17%
LTA (%) 5 μM ADP (Max) ([2]; 81 mg IR QD, main study): 59 ± 14%
LTA (%) 1 mM AA (Max) ([2]; 81 mg IR QD, main study): 5 ± 12%
LTA (%) 2 mM AA (Final), first line so labelled (r8) ([2]; 81 mg IR QD, main study): 5 ± 12%
LTA (%) 2 mM AA (Final), second line (r10) ([2]; 81 mg IR QD, main study): 6 ± 13%
LTA (%) 2 mM AA (Max) ([2]; 81 mg IR QD, main study): 7 ± 14%
LTA (%) 2 μg/mL Collagen (Final) [2, 8]: 67 ± 12%
LTA (%) 2 μg/mL Collagen (Max) [2, 8]: 68 ± 11%
LTA (%) 4 μg/mL Collagen (Final) [2, 8]: 71 ± 13%
LTA (%) 4 μg/mL Collagen (Max) [2, 8]: 73 ± 12%
LTA (%) 5 μM ADP (Final) [2, 8]: 52 ± 14%
LTA (%) 5 μM ADP (Max) [2, 8]: 61 ± 10%
LTA (%) 1 mM AA (Max) [2, 8]: 4 ± 2%
LTA (%) 2 mM AA (Final), first line so labelled (r8) [2, 8]: 3 ± 2%
LTA (%) 2 mM AA (Final), second line (r10) [2, 8]: 3 ± 2%
LTA (%) 2 mM AA (Max) [2, 8]: 4 ± 2%
VerifyNow Aspirin Assay (ARU) ([3]; 81 mg IR QD, main study): 477 ± 72 ARU
VerifyNow Aspirin Assay (ARU) [3, 8]: 475 ± 102 ARU
Bradykinin-stimulated prostacyclin levels over placebo ([4]; 81 mg): significantly reduced
Basal prostacyclin levels over placebo ([4]; 81 mg daily for 1 week): significantly reduced
Bradykinin-stimulated prostacyclin levels over placebo ([4]; 162.5 mg): significantly reduced
Basal prostacyclin levels over placebo ([4]; 162.5 mg daily for 1 week): significantly reduced
PlateletWorks (% Agg) AA ([5]; 81 mg IR QD, main study): 44 ± 19 % Agg
PlateletWorks (% Agg) ADP ([5]; 81 mg IR QD, main study): 83 ± 15 % Agg
PlateletWorks (% Agg) Collagen ([5]; 81 mg IR QD, main study): 47 ± 17 % Agg
PlateletWorks (% Agg) AA [5, 8]: 44 ± 16 % Agg
PlateletWorks (% Agg) ADP [5, 8]: 84 ± 10 % Agg
PlateletWorks (% Agg) Collagen [5, 8]: 44 ± 12 % Agg
serum TxB2 levels 24 hours after administration [6]: significant increase
Reactive Hyperemia Index, Maximum [7, 9]: 2.27
Reactive Hyperemia Index, Mean [7, 9]: 1.74
Reactive Hyperemia Index, Minimum [7, 9]: 1.23
Reactive Hyperemia Index, Mean ([7]; HPT Group, Visit 5, 81 mg IR ASA, listed as IR aspirin): 1.7±0.5
RHI < 1.67 (%) [7, 9]: (44) %
Reactive Hyperemia Index, Maximum ([7]; Visit 2, 81 mg IR ASA): 3.01
Reactive Hyperemia Index, Mean ([7]; Visit 2, 81 mg IR ASA): 1.94
Reactive Hyperemia Index, Minimum ([7]; Visit 2, 81 mg IR ASA): 0.58
Reactive Hyperemia Index, Mean ([7]; Visit 2, 81 mg IR ASA, listed as IR aspirin): 1.9±0.5
RHI < 1.67 (%) ([7]; Visit 2, 81 mg IR ASA): (27.5) %
